Laboratory results: patent US20160038468A1 (priority 2013, published 2016)
Like-named read-outs stand apart in the source and are kept apart here.

Legend:
Assay type in all cases: cell-based
[1] = system: Mobiluncus spp; assay: Agar dilution MIC (CLSI), Mobiluncus spp vaginal isolate; conditions: read-out: Minimal Inhibitory Concentration (MIC)
[2] = system: Prevotella amnii; assay: Agar dilution MIC (CLSI), Prevotella amnii vaginal isolates; conditions: for Number of strains with indicated MIC: 33 samples; for MIC: read-out: Minimal Inhibitory Concentration (MIC)
[3] = system: M. curtisii; assay: Agar dilution MIC (CLSI), M. curtisii vaginal isolates; conditions: for Number of strains with indicated MIC: 14 samples
[4] = system: Peptoniphilus harei; assay: Agar dilution MIC (CLSI), Peptoniphilus harei vaginal isolates; conditions: for Number of strains with indicated MIC: 23 samples; for MIC: read-out: Minimal Inhibitory Concentration (MIC)
[5] = system: Gardnerella vaginalis; assay: Agar dilution MIC (CLSI), Gardnerella vaginalis vaginal isolates; conditions: for Number of strains with indicated MIC: 100 samples
[6] = system: Prevotella timonensis; assay: Agar dilution MIC (CLSI), Prevotella timonensis vaginal isolates; conditions: for MIC: read-out: Minimal Inhibitory Concentration (MIC); for Number of strains with indicated MIC: 33 samples
[7] = system: Peptoniphilus lacrimalis; assay: Agar dilution MIC (CLSI), Peptoniphilus lacrimalis vaginal isolates; conditions: for Number of strains with indicated MIC: 20 samples; for MIC: read-out: Minimal Inhibitory Concentration (MIC)
[8] = Peptoniphilus harei, # tested 23
[9] = Gardnerella vaginalis, # tested 107
[10] = Hoylesella timonensis, # tested 33
[11] = Peptoniphilus lacrimalis, # tested 20

CO[C@H]1/C=C/O[C@@]2(C)Oc3c(C)c(O)c4c(O)c(c5c(nc6cc(C)ccn65)c4c3C2=O)NC(=O)/C(C)=C\C=C\[C@H](C)[C@H](O)[C@@H](C)[C@@H](O)[C@@H](C)[C@H](OC(C)=O)[C@@H]1C [Rifaximin]
11: Number of strains with indicated MIC ([5]; MIC >[…])
1: Number of strains with indicated MIC ([4]; MIC 0.00375 μg/ml) | Number of strains with indicated MIC ([4]; MIC 0.03 μg/ml) | Number of strains with indicated MIC ([6]; MIC 0.00375 μg/ml) | Number of strains with indicated MIC ([6]; MIC 0.06 μg/ml) | Number of strains with indicated MIC ([7]; MIC 0.03 μg/ml)
0.06 µg/mL: MIC ([6]; Hoylesella timonensis, isolate 601167 13)
14: Number of strains with indicated MIC ([2]; MIC 0.03 μg/ml)
0.015 to 0.03 µg/mL: MIC Range ([2]; # tested 33)
0.03 µg/mL: MIC [1] | MIC ([2]; Prevotella amnii, isolate 601256 11) | MIC ([2]; Prevotella amnii, isolate 601266 20) | MIC ([2]; Prevotella amnii, isolate 601293 29) | MIC ([2]; Prevotella amnii, isolate 601305 A) | MIC ([2]; Prevotella amnii, isolate 601311 K) | MIC ([2]; Prevotella amnii, isolate 601314 19) | MIC ([2]; Prevotella amnii, isolate 601318 G) | MIC ([2]; Prevotella amnii, isolate 601369 13) | MIC ([2]; Prevotella amnii, isolate 601377 9) | MIC ([2]; Prevotella amnii, isolate 601379 24) | MIC ([2]; Prevotella amnii, isolate 601388 G) | MIC ([2]; Prevotella amnii, isolate 601411 L) | MIC ([2]; Prevotella amnii, isolate 601418 27) | MIC ([2]; Prevotella amnii, isolate 601458 13) | MIC90 ([2]; Prevotella amnii, # tested 33) | MIC ([4]; Peptoniphilus harei, isolate 601233V R) | MIC ([6]; Hoylesella timonensis, isolate 601370 13) | MIC ([6]; Hoylesella timonensis, isolate 601414 O) | MIC ([7]; Peptoniphilus lacrimalis, isolate 601293V 15)
0.015 µg/mL: MIC ([2]; Prevotella amnii, isolate 601203 4) | MIC ([2]; Prevotella amnii, isolate 601258 25) | MIC ([2]; Prevotella amnii, isolate 601261 E) | MIC ([2]; Prevotella amnii, isolate 601278 10) | MIC ([2]; Prevotella amnii, isolate 601287 HH) | MIC ([2]; Prevotella amnii, isolate 601291 41) | MIC ([2]; Prevotella amnii, isolate 601336 33) | MIC ([2]; Prevotella amnii, isolate 601340 37) | MIC ([2]; Prevotella amnii, isolate 601341 H) | MIC ([2]; Prevotella amnii, isolate 601350 A) | MIC ([2]; Prevotella amnii, isolate 601365 6) | MIC ([2]; Prevotella amnii, isolate 601368 24) | MIC ([2]; Prevotella amnii, isolate 601375 L) | MIC ([2]; Prevotella amnii, isolate 601399 10) | MIC ([2]; Prevotella amnii, isolate 601405 A) | MIC ([2]; Prevotella amnii, isolate 601413 10) | MIC ([2]; Prevotella amnii, isolate 601426 A) | MIC ([2]; Prevotella amnii, isolate 601430 14) | MIC ([2]; Prevotella amnii, isolate 601434 13) | MIC50 ([2]; Prevotella amnii, # tested 33) | MIC ([3]; individual isolates recovered from the vagina 2009-2012, one line per isolate (id in c0/c1 of the row), read-out: Minimal Inhibitory Concentration (MIC)) | MIC ([4]; Peptoniphilus harei, isolate 601259V 11) | MIC ([4]; Peptoniphilus harei, isolate 601302V F1) | MIC ([4]; Peptoniphilus harei, isolate 601326V F) | MIC ([4]; Peptoniphilus harei, isolate 601355V D) | MIC ([4]; Peptoniphilus harei, isolate 601374V F) | MIC ([4]; Peptoniphilus harei, isolate 601430V 22) | MIC90 [4, 8] | MIC ([6]; Hoylesella timonensis, isolate 601088 15) | MIC ([6]; Hoylesella timonensis, isolate 601093 24) | MIC ([6]; Hoylesella timonensis, isolate 601097 S) | MIC ([6]; Hoylesella timonensis, isolate 601098 B) | MIC ([6]; Hoylesella timonensis, isolate 601157 19) | MIC ([6]; Hoylesella timonensis, isolate 601170 13) | MIC ([6]; Hoylesella timonensis, isolate 601175 J) | MIC ([6]; Hoylesella timonensis, isolate 601178 19) | MIC ([6]; Hoylesella timonensis, isolate 601214 A) | MIC ([6]; Hoylesella timonensis, isolate 601226 C) | MIC ([6]; Hoylesella timonensis, isolate 601234 B) | MIC ([6]; Hoylesella timonensis, isolate 601245 16) | MIC ([6]; Hoylesella timonensis, isolate 601252 B) | MIC ([6]; Hoylesella timonensis, isolate 601255 17) | MIC ([6]; Hoylesella timonensis, isolate 601266 18) | MIC ([6]; Hoylesella timonensis, isolate 601278 12) | MIC ([6]; Hoylesella timonensis, isolate 601281 22) | MIC ([6]; Hoylesella timonensis, isolate 601287 H) | MIC ([6]; Hoylesella timonensis, isolate 601293 13) | MIC ([6]; Hoylesella timonensis, isolate 601311 B) | MIC ([6]; Hoylesella timonensis, isolate 601367 E) | MIC ([6]; Hoylesella timonensis, isolate 601388 S) | MIC ([6]; Hoylesella timonensis, isolate 601401 J) | MIC ([6]; Hoylesella timonensis, isolate 601411 S) | MIC ([6]; Hoylesella timonensis, isolate 601422 39) | MIC ([6]; Hoylesella timonensis, isolate 601429 11) | MIC ([6]; Hoylesella timonensis, isolate 601459 21) | MIC50 [6, 10] | MIC90 [6, 10] | MIC ([7]; Peptoniphilus lacrimalis, isolate 601028V 27A) | MIC ([7]; Peptoniphilus lacrimalis, isolate 601060V 32A) | MIC ([7]; Peptoniphilus lacrimalis, isolate 601078V O) | MIC ([7]; Peptoniphilus lacrimalis, isolate 601084V c) | MIC ([7]; Peptoniphilus lacrimalis, isolate 601105V 13) | MIC ([7]; Peptoniphilus lacrimalis, isolate 601139V 17) | MIC ([7]; Peptoniphilus lacrimalis, isolate 601213V 17) | MIC ([7]; Peptoniphilus lacrimalis, isolate 601255V 12) | MIC ([7]; Peptoniphilus lacrimalis, isolate 601261V O) | MIC ([7]; Peptoniphilus lacrimalis, isolate 601296V N) | MIC ([7]; Peptoniphilus lacrimalis, isolate 601330V H) | MIC ([7]; Peptoniphilus lacrimalis, isolate 601336V 47) | MIC50 [7, 11] | MIC90 [7, 11]
19: Number of strains with indicated MIC ([2]; MIC 0.015 μg/ml)
27: Number of strains with indicated MIC ([6]; MIC 0.015 μg/ml)
> 128 µg/mL: MIC90 [5, 9]
0.00375 to 0.03 µg/mL: MIC Range ([4]; # tested 23) | MIC Range ([7]; # tested 20)
5: Number of strains with indicated MIC ([7]; MIC 0.0075 μg/ml)
12: Number of strains with indicated MIC ([3]; MIC 0.015 μg/ml) | Number of strains with indicated MIC ([7]; MIC 0.015 μg/ml)
0.0075 µg/mL: MIC ([4]; Peptoniphilus harei, isolate 426868V D) | MIC ([4]; Peptoniphilus harei, isolate 601098V Q) | MIC ([4]; Peptoniphilus harei, isolate 601203V 8) | MIC ([4]; Peptoniphilus harei, isolate 601212V 15) | MIC ([4]; Peptoniphilus harei, isolate 601248V 23) | MIC ([4]; Peptoniphilus harei, isolate 601289V C) | MIC ([4]; Peptoniphilus harei, isolate 601293V 21) | MIC ([4]; Peptoniphilus harei, isolate 601342V F) | MIC ([4]; Peptoniphilus harei, isolate 601365V 14) | MIC ([4]; Peptoniphilus harei, isolate 601388V Q) | MIC ([4]; Peptoniphilus harei, isolate 601399V 16) | MIC ([4]; Peptoniphilus harei, isolate 601409V L) | MIC ([4]; Peptoniphilus harei, isolate 601413V 16) | MIC ([4]; Peptoniphilus harei, isolate 601426V D) | MIC ([4]; Peptoniphilus harei, isolate 601539V 25B) | MIC50 [4, 8] | MIC ([6]; Hoylesella timonensis, isolate 601080 5) | MIC ([6]; Hoylesella timonensis, isolate 601194 9B) | MIC ([7]; Peptoniphilus lacrimalis, isolate 601305V K-1) | MIC ([7]; Peptoniphilus lacrimalis, isolate 601318V E) | MIC ([7]; Peptoniphilus lacrimalis, isolate 601365V 13) | MIC ([7]; Peptoniphilus lacrimalis, isolate 601368V 39) | MIC ([7]; Peptoniphilus lacrimalis, isolate 601375V E)
0.00375 µg/mL: MIC ([4]; Peptoniphilus harei, isolate 601311V R) | MIC ([6]; Hoylesella timonensis, isolate 301212 10) | MIC ([7]; Peptoniphilus lacrimalis, isolate 601388V B) | MIC ([7]; Peptoniphilus lacrimalis, isolate 601401V I)
0.00375 to 0.06 µg/mL: MIC Range ([6]; # tested 33)
6: Number of strains with indicated MIC ([4]; MIC 0.015 μg/ml)
~90%: share of G vaginalis strains against which the agent had activity [5]
3: Number of strains with indicated MIC ([5]; MIC 8 μg/ml)
2 µg/mL: MIC50 [5, 9]
2: Number of strains with indicated MIC ([3]; MIC 0.03 μg/ml) | Number of strains with indicated MIC ([6]; MIC 0.0075 μg/ml) | Number of strains with indicated MIC ([6]; MIC 0.03 μg/ml) | Number of strains with indicated MIC ([7]; MIC 0.00375 μg/ml)
33 (100) μg/ml: Susceptible ([6]; number (%) of isolates, # tested 33)
15: Number of strains with indicated MIC ([4]; MIC 0.0075 μg/ml)
